Here are results for 22 compounds from patent US8455475B2 (Gruenenthal GmbH, priority 2009, dated 2013).

As usually defined, the inhibition is the relative decrease from the control value, in per cent.

The target of assay [1] is T1, rat B1R (bradykinin receptor 1) (Rattus norvegicus, UniProt P97583).
T1 construct: expressed in transfected cells; host or cells: CHO K1 cells
T1 sequence (P97583 1-337): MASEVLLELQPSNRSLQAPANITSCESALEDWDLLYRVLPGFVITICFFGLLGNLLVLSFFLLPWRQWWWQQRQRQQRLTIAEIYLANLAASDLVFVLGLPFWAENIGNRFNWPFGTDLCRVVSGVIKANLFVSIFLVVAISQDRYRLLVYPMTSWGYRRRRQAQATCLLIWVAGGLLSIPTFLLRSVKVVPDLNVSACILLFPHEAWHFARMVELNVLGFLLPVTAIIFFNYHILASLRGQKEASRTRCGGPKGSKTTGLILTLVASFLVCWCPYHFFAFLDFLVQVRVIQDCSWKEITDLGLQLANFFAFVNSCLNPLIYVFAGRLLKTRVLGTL
Description: FLIPR Ca2+ assay (Fluo-4) on CHO K1 cells stably transfected with the B1R gene of the rat (rB1R cells): % inhibition at 10 μM / IC50, agonist Des-Arg9-bradykinin. The format is cell-based. As to conditions: for inhibition at 10 µM: CHO-K1, rat B1R. The method in brief:
(§1)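 Stable CHO K1 lines, Fluo-4 dye, probenecid-containing buffer. Cpd 10 μM or dose range, 10–20 min, then EC80 agonist (h: Lys-Des-Arg9-BK; r: Des-Arg9-BK). Readout peak FC; % inhibition vs max; IC50 from n=2–3, N≥2.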

The target of assay [2] is T2, human B1R (bradykinin receptor 1) (Homo sapiens, UniProt P46663).
T2 construct: expressed in transfected cells; host or cells: CHO K1 cells
T2 sequence (P46663 1-353): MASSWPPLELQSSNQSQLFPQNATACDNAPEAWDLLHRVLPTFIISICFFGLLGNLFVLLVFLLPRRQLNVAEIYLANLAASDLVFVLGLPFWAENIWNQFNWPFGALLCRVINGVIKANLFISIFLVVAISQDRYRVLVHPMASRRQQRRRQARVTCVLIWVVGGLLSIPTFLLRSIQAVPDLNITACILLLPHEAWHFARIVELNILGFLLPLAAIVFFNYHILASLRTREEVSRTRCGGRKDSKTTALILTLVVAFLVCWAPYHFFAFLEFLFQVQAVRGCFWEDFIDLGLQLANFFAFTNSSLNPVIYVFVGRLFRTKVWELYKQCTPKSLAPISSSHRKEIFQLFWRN
Description: FLIPR Ca2+ assay (Fluo-4) on CHO K1 cells stably transfected with the human B1R gene (hB1R cells): % inhibition at 10 μM / IC50, agonist Lys-Des-Arg9-bradykinin. The format is cell-based. To be noted: for inhibition at 10 µM: CHO-K1, human B1R. The method in brief: as §1

The structures appear in SMILES notation.

`O=C(NC1CCc2ccc(C(=O)N3CCC4(CCN(Cc5ccc6nccnc6c5)CC4)C3)cc21)c1ccccc1Cl` (centres unmarked) [IND_CC-568, 2-Chloro-N-[6-[8-(quinoxalin-6-yl-methyl)-2,8-diazaspiro[4.5]decane-2-carbonyl]-2,3-dihydro-1H-inden-1-yl]-benzamide]: the values for the inhibition at 10 µM in assay [1] and in assay [2] were 105% and 20%, respectively.

With `O=C(NC1CCc2ccc(C(=O)N3CCC4(CCN(C(=O)C5CC5)CC4)C3)cc21)c1ccccc1Cl` (centres unmarked) [IND_CC-573, 2-Chloro-N-[6-[8-(cyclopropanecarbonyl)-2,8-diazaspiro[4.5]decane-2-carbonyl]-2,3-dihydro-1H-inden-1-yl]-benzamide], the inhibition at 10 µM in assay [1] was found to be 100%; in assay [2], 43%.

For `CC(C)(C)CC(=O)N1CCC2(CC1)CCN(C(=O)c1ccc3c(c1)C(NC(=O)c1ccccc1Cl)CC3)C2` (centres unmarked) [IND_CC-574, 2-Chloro-N-[6-[8-(3,3-dimethyl-butanoyl)-2,8-diazaspiro[4.5]decane-2-carbonyl]-2,3-dihydro-1H-inden-1-yl]-benzamide], the values for the inhibition at 10 µM in assay [1] and in assay [2] were 101% and 14%, respectively.

Regarding `O=C(NC1CCc2ccc(C(=O)N3CCC4(CCN(C(=O)Cc5ccc(Cl)cc5)CC4)C3)cc21)c1ccccc1Cl` (centres unmarked) [IND_CC-577, 2-Chloro-N-[6-[8-[2-(4-chlorophenyl)-acetyl]-2,8-diazaspiro[4.5]decane-2-carbonyl]-2,3-dihydro-1H-inden-1-yl]-benzamide], the inhibition at 10 µM is 96% in assay [1] and 21% in assay [2].

As for `COc1cc(C)c(S(=O)(=O)NC2CCc3ccc(C(=O)N4CCC5(CC4)CCN(c4ccncc4)CC5)cc32)c(C)c1` (centres unmarked) [Ind_CC-001, 4-methoxy-2,6-dimethyl-N-[6-(9-pyridin-4-yl-3,9-diazaspiro[5.5]undecane-3-carbonyl)-2,3-dihydro-1H-inden-1-yl]-benzenesulfonic acid amide], the inhibition at 10 µM in assay [1] amounted to 98%; in assay [2] it was 99%.

Regarding `O=C(NC1CCc2ccc(C(=O)N3CCC4(CC3)CCN(c3ccncc3)CC4)cc21)c1ccccn1` (centres unmarked) [Ind_CC-002, N-[6-(9-pyridin-4-yl-3,9-diazaspiro[5.5]undecane-3-carbonyl)-2,3-dihydro-1H-inden-1-yl]-pyridine-2-carboxylic acid amide], the figures for the inhibition at 10 µM in assay [1] and in assay [2] were 85% and 97%, respectively.

Regarding `O=C(NC1CCc2ccc(C(=O)N3CCC4(CC3)CCN(c3ccncc3)CC4)cc21)c1ccccc1C(F)(F)F` (centres unmarked) [Ind_CC-003, N-[6-(9-pyridin-4-yl-3,9-diazaspiro[5.5]undecane-3-carbonyl)-2,3-dihydro-1H-inden-1-yl]-2-(trifluoromethyl)-benzamide], the inhibition at 10 µM in assay [1] is 101%; in assay [2] it was 99%.

Take `O=C(NC1CCc2ccc(C(=O)N3CCC4(CC3)CCN(c3ccncc3)CC4)cc21)c1sccc1Cl` (centres unmarked) [Ind_CC-004, 3-chloro-N-[6-(9-pyridin-4-yl-3,9-diazaspiro[5.5]undecane-3-carbonyl)-2,3-dihydro-1H-inden-1-yl]-thiophene-2-carboxylic acid amide]: the inhibition at 10 µM came to 98% in assay [1] and 99% in assay [2].

Regarding `O=C(NC1CCc2ccc(C(=O)N3CCC4(CC3)CCN(c3ccncc3)CC4)cc21)c1ccc(Cl)s1` (centres unmarked) [Ind_CC-005, 5-chloro-N-[6-(9-pyridin-4-yl-3,9-diazaspiro[5.5]undecane-3-carbonyl)-2,3-dihydro-1H-inden-1-yl]-thiophene-2-carboxylic acid amide], the inhibition at 10 µM is 98% in assay [1] and 97% in assay [2].

Regarding `O=C(NC1CCc2ccc(C(=O)N3CCC4(CC3)CCN(c3ccncc3)CC4)cc21)c1ccc(Cl)cc1Cl` (centres unmarked) [Ind_CC-006, 2,4-dichloro-N-[6-(9-pyridin-4-yl-3,9-diazaspiro[5.5]undecane-3-carbonyl)-2,3-dihydro-1H-inden-1-yl]-benzamide], the inhibition at 10 µM in assay [1] and in assay [2] was 98% in each case.

`O=C(Cc1ccccc1Cl)NC1CCc2ccc(C(=O)N3CCC4(CC3)CCN(c3ccncc3)CC4)cc21` (centres unmarked) [Ind_CC-007, 2-(2-chlorophenyl)-N-[6-(9-pyridin-4-yl-3,9-diazaspiro[5.5]undecane-3-carbonyl)-2,3-dihydro-1H-inden-1-yl]-acetamide]: the inhibition at 10 µM in assay [1] turned out to be 102%; in assay [2], 99%.

Consider `O=C(/C=C/c1ccccc1Cl)NC1CCc2ccc(C(=O)N3CCC4(CC3)CCN(c3ccncc3)CC4)cc21` (centres unmarked) [Ind_CC-008, (E)-3-(2-chlorophenyl)-N-[6-(9-pyridin-4-yl-3,9-diazaspiro[5.5]undecane-3-carbonyl)-2,3-dihydro-1H-inden-1-yl]-acrylamide], for which the inhibition at 10 µM in assay [1] came to 74%; in assay [2] it was 72%.

On to `O=C(NC1CCc2ccc(C(=O)N3CCC4(CC3)CCN(c3ccncc3)CC4)cc21)C(c1ccccc1)c1ccccc1Cl` (centres unmarked) [Ind_CC-009, 2-(2-chlorophenyl)-2-phenyl-N-[6-(9-pyridin-4-yl-3,9-diazaspiro[5.5]undecane-3-carbonyl)-2,3-dihydro-1H-inden-1-yl]-acetamide], for which the inhibition at 10 µM in assay [1] was found to be 99%; in assay [2] it was 87%.

For the compound `O=C(c1ccc2c(c1)C(NS(=O)(=O)c1ccccc1Cl)CC2)N1CCC2(CC1)CCN(c1ccncc1)CC2` (centres unmarked) [Ind_CC-010, 2-chloro-N-[6-(9-pyridin-4-yl-3,9-diazaspiro[5.5]undecane-3-carbonyl)-2,3-dihydro-1H-inden-1-yl]-benzenesulfonic acid amide], the inhibition at 10 µM turned out to be 100% in assay [1] and 97% in assay [2].

Consider `O=C(Nc1ccc(Cl)c(Cl)c1)NC1CCc2ccc(C(=O)N3CCC4(CC3)CCN(c3ccncc3)CC4)cc21` (centres unmarked) [Ind_CC-011], for which the “% Inhibition (rat B1R) at 10 μM” value in assay [1] (rat B1R) came out at 76%. Also, the “% Inhibition (human B1R) at 10 μM” value in assay [2] (human B1R) is 36%.

As for `O=C(NCc1ccccc1Cl)NC1CCc2ccc(C(=O)N3CCC4(CC3)CCN(c3ccncc3)CC4)cc21` (centres unmarked) [Ind_CC-012, 1-[(2-chlorophenyl)-methyl]-3-[6-(9-pyridin-4-yl-3,9-diazaspiro[5.5]undecane-3-carbonyl)-2,3-dihydro-1H-inden-1-yl]-urea], the inhibition at 10 µM in assay [1] and in assay [2] was 100% each time.

On to `COc1cc(C)c(C(=O)NC2CCc3ccc(C(=O)N4CCC5(CC4)CCN(c4ccncc4)CC5)cc32)c(C)c1` (centres unmarked) [Ind_CC-013, 4-methoxy-2,6-dimethyl-N-[6-(9-pyridin-4-yl-3,9-diazaspiro[5.5]undecane-3-carbonyl)-2,3-dihydro-1H-inden-1-yl]-benzamide], for which the inhibition at 10 µM came out at 71% in assay [1] and 68% in assay [2].

Turning to `CN(C(=O)c1ccccn1)C1CCc2ccc(C(=O)N3CCC4(CC3)CCN(c3ccncc3)CC4)cc21` (centres unmarked) [Ind_CC-014, N-methyl-N-[6-(9-pyridin-4-yl-3,9-diazaspiro[5.5]undecane-3-carbonyl)-2,3-dihydro-1H-inden-1-yl]-pyridine-2-carboxylic acid amide], the inhibition at 10 µM in assay [1] was 101%; in assay [2], 93%.

With `CN(C(=O)c1ccccc1C(F)(F)F)C1CCc2ccc(C(=O)N3CCC4(CC3)CCN(c3ccncc3)CC4)cc21` (centres unmarked) [Ind_CC-015, N-methyl-N-[6-(9-pyridin-4-yl-3,9-diazaspiro[5.5]undecane-3-carbonyl)-2,3-dihydro-1H-inden-1-yl]-2-(trifluoromethyl)-benzamide], the figures for the inhibition at 10 µM in assay [1] and in assay [2] were 101% and 100%, respectively.

On to `CN(C(=O)c1sccc1Cl)C1CCc2ccc(C(=O)N3CCC4(CC3)CCN(c3ccncc3)CC4)cc21` (centres unmarked) [Ind_CC-016, 3-chloro-N-methyl-N-[6-(9-pyridin-4-yl-3,9-diazaspiro[5.5]undecane-3-carbonyl)-2,3-dihydro-1H-inden-1-yl]-thiophene-2-carboxylic acid amide], for which the inhibition at 10 µM in assay [1] is 102%; in assay [2] it was 100%.

`CN(C(=O)c1ccc(Cl)s1)C1CCc2ccc(C(=O)N3CCC4(CC3)CCN(c3ccncc3)CC4)cc21` (centres unmarked) [Ind_CC-017, 5-chloro-N-methyl-N-[6-(9-pyridin-4-yl-3,9-diazaspiro[5.5]undecane-3-carbonyl)-2,3-dihydro-1H-inden-1-yl]-thiophene-2-carboxylic acid amide]: the inhibition at 10 µM in assay [1] was 102%; in assay [2], 99%.

Turning to `CN(C(=O)c1ccc(Cl)cc1Cl)C1CCc2ccc(C(=O)N3CCC4(CC3)CCN(c3ccncc3)CC4)cc21` (centres unmarked) [Ind_CC-018, 2,4-dichloro-N-methyl-N-[6-(9-pyridin-4-yl-3,9-diazaspiro[5.5]undecane-3-carbonyl)-2,3-dihydro-1H-inden-1-yl]-benzamide], the inhibition at 10 µM in assay [1] and in assay [2] was 98% in each case.
